{"source": "paper PMC10796436", "about": "“Peptidyl nitroalkene inhibitors of main protease rationalized by computational and crystallographic investigations as antivirals against SARS-CoV-2” (Communications Chemistry, 2024)", "key": {"[1]": {"target": "M^pro (Severe acute respiratory syndrome coronavirus 2, UniProt P0DTD1)", "format": "biochemical", "details": "for Fluorescence reading (progress curve): triplicate wells", "procedure": "Buffer: 20 mM Tris, 0.1 mM EDTA, 1 mM DTT, 200 mM NaCl pH = 7.5. For the dilution assay Nirmatrelvir[21] was used as a reversible control and LM188[54] as an irreversible control (Fig. 10).\nThe incubation was done at RT for 30 min in assay buffer. DMSO was used as a control. After incubation the Enzyme/Inhibitor (or DMSO) mixtures were diluted 100-fold in assay buffer.\nThe preincubation was done in assay buffer (20 mM Tris, 0.1 mM EDTA, 1 mM DTT, 200 mM NaCl, pH = 7.5), at RT for 30 min. After incubation the mixtures were diluted […]\nproteolytic activity of the enzyme was measured as described for the enzymatic assays using the […]\nactivity was measured over 1 h.\nInhibition assay58. Trypsin: Enzyme: bovine trypsin purchased from Sigma-Aldrich (St. Louis, […]\nSubstrate: Cbz-FR-AMC purchased from Bachem (Bubendorf, Switzerland), [Substrate]: 40 µM […]\nThe activity against bovine trypsin was tested at 20 µM inhibitor concentration. […]"}, "[2]": {"target": "T1, bovine trypsin (Bos taurus, UniProt P00760)", "T1 construct": "purchased Sigma-Aldrich", "T1 sequence (P00760 24-246)": "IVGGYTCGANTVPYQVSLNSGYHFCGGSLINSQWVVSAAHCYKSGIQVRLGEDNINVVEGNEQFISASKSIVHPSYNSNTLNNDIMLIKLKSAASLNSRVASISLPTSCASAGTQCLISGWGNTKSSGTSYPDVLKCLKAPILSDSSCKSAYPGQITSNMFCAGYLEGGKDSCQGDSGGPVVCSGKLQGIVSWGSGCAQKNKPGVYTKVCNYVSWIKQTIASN", "format": "biochemical", "details": "20 μM"}, "[3]": {"assay": "Permeability, PAMPA", "format": "in vitro ADME", "details": "UV-quantified, 2–7 h", "procedure": "Permeability. General principle after Lit.66 Incubation setup: donor (top) plate (Sigma Aldrich, MAIPNTR10), 5 µL artificial membrane (1 % (w/v) L-α-Phosphatidylcholin, Sigma Aldrich P3556, in n-dodecane, Sigma Aldrich 8205430100), acceptor (bottom) plate (Greiner, 655074).\nMeasurement setup – UV spectroscopy: UV-transparent measurement plate (Greiner UV-Star®, 655801), Tecan Spark® well plate reader, 200 µL sample volume, λ = 200–650 nm. Analysis was performed with AUC function in GraphPad Prism using the indicated wavelength range.\nSigma D5652; pH 7.4 or TRIS 50 mM pH 7.4) aqueous solution with varying final contents of ACN or DMSO as indicated. (“donor solution”). Similarly prepared solutions (buffer + solvent) were used as “acceptor solutions”. 150 µL of donor solution was applied onto the artificial membrane which was applied first to the donor plate. This was sealed (Greiner, 676070, Viewseal sealer). 400 µL of acceptor solution was applied to the acceptor plate. […] After this time, acceptor solution was analyzed with UV spectroscopy. Reference solutions were prepared by simply mixing the indicated volumes of donor and acceptor solutions at the start of the incubation period and analyzed later with the acceptor solutions. […]\nAfter the incubation period, the reference solution was analyzed by LCMS as described under […]\nNo permeation can be observed in any of the UV-quantified experiments. […]"}}, "note": "Several values for one entry are separate records, joined by “and”; a condition that tells them apart may be missing. Identical values can stand only once. Like-named read-outs stand apart in the source and are kept apart here.", "data": [{"smiles": "COc1cccc2[nH]c(C(=O)N[C@@H](CC(C)C)C(=O)N[C@H](/C=C/[N+](=O)[O-])C[C@@H]3CCNC3=O)cc12", "note": "[FGA146]", "values": [{"measurement": "Fluorescence reading (progress curve)", "setting": "[1]; Time 180.071 s", "result": "702 and 681 and 686"}, {"measurement": "Fluorescence reading (progress curve)", "setting": "[1]; Time 210.081 s", "result": "743 and 723 and 735"}, {"measurement": "Fluorescence reading (progress curve)", "setting": "[1]; Time 240.095 s", "result": "788 and 769 and 779"}, {"measurement": "Fluorescence reading (progress curve)", "setting": "[1]; Time 270.113 s", "result": "832 and 815 and 822"}, {"measurement": "Fluorescence reading (progress curve)", "setting": "[1]; Time 300.118 s", "result": "871 and 859 and 876"}, {"measurement": "Fluorescence reading (progress curve)", "setting": "[1]; Time 330.126 s", "result": "913 and 895 and 906"}, {"measurement": "Fluorescence reading (progress curve)", "setting": "[1]; Time 360.134 s", "result": "943 and 930 and 957"}, {"measurement": "Fluorescence reading (progress curve)", "setting": "[1]; Time 390.141 s", "result": "989 and 974 and 988"}, {"measurement": "Fluorescence reading (progress curve)", "setting": "[1]; Time 420.149 s", "result": "1026 and 1011 and 1031"}, {"measurement": "Fluorescence reading (progress curve)", "setting": "[1]; Time 450.157 s", "result": "1063 and 1040"}, {"measurement": "Fluorescence reading (progress curve)", "setting": "[1]; Time 2881.2 s", "result": "2210 and 2162 and 2202"}, {"measurement": "Fluorescence reading (progress curve)", "setting": "[1]; Time 2911.21 s", "result": "2205 and 2168 and 2199"}, {"measurement": "Fluorescence reading (progress curve)", "setting": "[1]; Time 2941.22 s", "result": "2214 and 2173 and 2206"}, {"measurement": "Fluorescence reading (progress curve)", "setting": "[1]; Time 2971.24 s", "result": "2207 and 2185 and 2213"}, {"measurement": "Fluorescence reading (progress curve)", "setting": "[1]; Time 3001.25 s", "result": "2222 and 2185 and 2232"}, {"measurement": "Fluorescence reading (progress curve)", "setting": "[1]; Time 3031.26 s", "result": "2246 and 2178 and 2225"}, {"measurement": "Fluorescence reading (progress curve)", "setting": "[1]; Time 3061.27 s", "result": "2233 and 2191 and 2237"}, {"measurement": "Fluorescence reading (progress curve)", "setting": "[1]; Time 3091.28 s", "result": "2243 and 2199 and 2235"}, {"measurement": "Fluorescence reading (progress curve)", "setting": "[1]; Time 3121.29 s", "result": "2244 and 2187 and 2224"}, {"measurement": "Fluorescence reading (progress curve)", "setting": "[1]; Time 3151.3 s", "result": "2247 and 2204 and 2241"}, {"measurement": "Fluorescence reading (progress curve)", "setting": "[1]; Time 3181.31 s", "result": "2224 and 2196 and 2245"}, {"measurement": "Fluorescence reading (progress curve)", "setting": "[1]; Time 3211.32 s", "result": "2250 and 2188 and 2275"}, {"measurement": "Fluorescence reading (progress curve)", "setting": "[1]; Time 3241.33 s", "result": "2234 and 2200"}, {"measurement": "Fluorescence reading (progress curve)", "setting": "[1]; Time 3271.34 s", "result": "2236 and 2195 and 2245"}, {"measurement": "Fluorescence reading (progress curve)", "setting": "[1]; Time 3301.35 s", "result": "2233 and 2201 and 2238"}, {"measurement": "Fluorescence reading (progress curve)", "setting": "[1]; Time 3331.36 s", "result": "2246 and 2198 and 2261"}, {"measurement": "Fluorescence reading (progress curve)", "setting": "[1]; Time 3361.37 s", "result": "2261 and 2203 and 2250"}, {"measurement": "Fluorescence reading (progress curve)", "setting": "[1]; Time 3391.39 s", "result": "2251 and 2199 and 2248"}, {"measurement": "Fluorescence reading (progress curve)", "setting": "[1]; Time 3421.39 s", "result": "2261 and 2206 and 2226"}, {"measurement": "Fluorescence reading (progress curve)", "setting": "[1]; Time 3451.41 s", "result": "2253 and 2215 and 2257"}, {"measurement": "Fluorescence reading (progress curve)", "setting": "[1]; Time 3481.42 s", "result": "2274 and 2215 and 2263"}, {"measurement": "Fluorescence reading (progress curve)", "setting": "[1]; Time 3511.43 s", "result": "2266 and 2207 and 2242"}, {"measurement": "Fluorescence reading (progress curve)", "setting": "[1]; Time 3541.44 s", "result": "2263 and 2215 and 2260"}, {"measurement": "Fluorescence reading (progress curve)", "setting": "[1]; Time 3571.45 s", "result": "2254 and 2212 and 2248"}, {"measurement": "recovery of M^pro activity after 100-fold dilution", "setting": "[1]; preincubation 30 min", "result": "seems to recover over time"}, {"measurement": "relative activity compared to the DMSO control", "setting": "[2]", "result": "112.5±16.9", "unit": "%"}, {"measurement": "permeation", "setting": "[3]", "result": "No permeation"}]}]}
